Measured values taken from patent US20050113450A1, “Antibacterial agents” (priority 2002, published 2005).
Converted amounts (≈) assume the structure as drawn.

test system: SA 9218; experiment: MIC by standard agar dilution method; type: cell-based; details: Mueller Hinton agar, 10^4 to 10^5 cells per spot, incubated overnight at 35° C., lowest concentration that inhibits visible growth
How it was run: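 Agar dilution: two-fold compound dilutions mixed into molten Mueller Hinton agar, spots of ~10^4–10^5 cells from 0.5 McFarland suspension diluted 1:20 in TSB. Incubated overnight at 35 °C; MIC is lowest concentration inhibiting visible growth.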

Row | Compound | MIC [µg/mL] | SA 9218 MIC [µg/mL]
1 | CCN(CC)C(=O)c1c(F)ccc(F)c1C(=O)Nc1ccc(C#N)cc1C(=O)O | > 128 | 
2 | CCCNC(c1ccccc1)c1cccc(C(=O)Nc2ccc(Cl)cc2C(=O)O)c1 (stereo not drawn) | 8 (≈ 18.9 µM) | 
3 | CCCN(CCC)Sc1ccc(C(=O)Nc2ccc(Cl)cc2C(=O)O)cc1[N+](=O)[O-] [PNU-277231] | 1 (≈ 2.21 µM) | 
4 | COCC(=O)Nc1cccc(C(=O)Nc2ccc(Br)cc2C(=O)O)c1 [PHA-708986] | 64 (≈ 157 µM) | 
5 | N#Cc1ccc(NC(=O)c2ccc(F)cc2)c(C(=O)O)c1 | 128 (≈ 450 µM) | 
6 | N#Cc1ccc(C2CC2c2cccc(S(=O)(=O)N3CCc4cc(Cl)ccc43)c2)c(C(=O)O)c1 (stereo not drawn) [PHA-687511] | 4 (≈ 8.35 µM) | 
7 | O=C(COc1ccc(Cl)cc1)c1cccc(C(=O)Nc2ccc(Cl)cc2C(=O)O)c1 | 8 (≈ 18 µM) | 
8 | O=C(Nc1ccc(Br)cc1C(=O)O)c1cccc(Cl)c1 | 8 (≈ 22.6 µM) | 
9 | COC(=O)C(Oc1cccc(C(=O)Nc2ccc(Br)cc2C(=O)O)c1)c1ccccc1 (stereo not drawn) | 4 (≈ 8.26 µM) | 
10 | N#Cc1ccc(NC(=O)c2cccc(Nc3ccccc3)c2)c(C(=O)O)c1 [PHA-610938, 2-[(3-Anilinobenzoyl)amino]-5-cyanobenzoic acid] | 1 (≈ 2.8 µM) | 
11 | O=C(Nc1ccc(Br)cc1C(=O)O)c1ccc(OC2CCOCC2)cc1 | 128 (≈ 305 µM) | 
12 | O=C(Nc1ccc(-c2ccccc2)cc1C(=O)O)c1cccc(S(=O)(=O)N2CCOCC2)c1 [PHA-610942] | > 128 | 
13 | O=C(Nc1ccc(Br)cc1C(=O)O)c1ccc(OCc2ccncc2)cc1 | > 128 | 
14 | O=C(Nc1ccc(-c2ccc(F)cc2F)cc1C(=O)O)c1cccc(S(=O)(=O)N2CCc3cc(Cl)ccc32)c1 [PHA-563281] | 1 (≈ 1.76 µM) | 
15 | COc1ccc(Oc2cccc(C(=O)Nc3ccc(C#N)cc3C(=O)O)c2)cc1 [PHA-564215] | 0.5 (≈ 1.29 µM) | 
16 | C=CCC(CC=C)Oc1ccc(C(=O)Nc2ccc(Br)cc2C(=O)O)cc1 [PHA-571292] | 32 (≈ 74.4 µM) | 
17 | O=C(Nc1ccc(Cl)cc1C(=O)O)c1cccc(C(NCc2cccc(Cl)c2)c2ccco2)c1 (stereo not drawn) | 8 (≈ 16.1 µM) | 
18 | N#Cc1ccc(NC(=O)c2cccc(S(=O)(=O)N3CCc4cc(Cl)ccc43)c2)c(C(=O)O)c1 [PHA-524523, 2-({3-[(5-Chloro-2,3-dihydro-1H-indol-1-yl)sulfonyl]benzoyl}amino)-5-cyanobenzoic acid] | 0.125 (≈ 0.259 µM) | 
19 | O=C(Nc1ccc(Br)cc1C(=O)O)c1ccc(C(F)(F)F)cc1 | 32 (≈ 82.4 µM) | 
20 | C=CCN(C1CCCC1)S(=O)(=O)c1cccc(C(=O)Nc2ccc(C#N)cc2C(=O)O)c1 [PHA-656870] | 8 (≈ 17.6 µM) | 
21 | CN(c1ccc(Cl)cc1)S(=O)(=O)c1cc(C(=O)Nc2ccc(Br)cc2C(=O)O)ccc1Br [PNU-291679] | 1 (≈ 1.66 µM) | 

Row | Compound | MIC [µg/mL] | SA 9218 MIC [µg/mL]
22 | CCOCCOCCOc1cccc(C(=O)Nc2ccc(Br)cc2C(=O)O)c1 | 32 (≈ 70.7 µM) | 
23 | O=C(Nc1ccc(Br)cc1C(=O)O)c1cc(S(=O)(=O)N2CCN(c3cccc(C(F)(F)F)c3)CC2)ccc1Br | 8 (≈ 11.6 µM) | 
24 | N#Cc1ccc(NC(=O)c2cccc(S(=O)(=O)N3CCN(c4cccc(C(F)(F)F)c4)CC3)c2)c(C(=O)O)c1 [PHA-571267] | 32 (≈ 57.3 µM) | 
25 | N#Cc1ccc(NC(=O)c2cccc(S(=O)(=O)N3CCN(c4ccc([N+](=O)[O-])cc4)CC3)c2)c(C(=O)O)c1 [PHA-656810] | 2 (≈ 3.73 µM) | 
26 | CC1CCCN1S(=O)(=O)c1ccc(C(=O)Nc2ccc(C#N)cc2C(=O)O)cc1 (stereo not drawn) [PHA-656871] | 128 (≈ 310 µM) | 
27 | CCCC(Oc1ccc(C(=O)Nc2ccc(Br)cc2C(=O)O)cc1)C(=O)OCC (stereo not drawn) [drawing 1052] |  | 64
28 | CCCC(=O)C(CCC)Oc1cccc(C(=O)Nc2ccc(Br)cc2C(=O)O)c1 (stereo not drawn) | 2 (≈ 4.33 µM) | 
29 | O=C(Nc1ccc(Br)cc1C(=O)O)c1cccc(NC(=O)c2ccco2)c1 [PHA-708978] | 32 (≈ 74.6 µM) | 
30 | CN(c1ccccn1)S(=O)(=O)c1ccc(C(=O)Nc2ccc(Br)cc2C(=O)O)cc1 [PHA-516112] | 8 (≈ 16.3 µM) | 
31 | CC#CCOc1ccc(C(=O)Nc2ccc(Br)cc2C(=O)O)cc1 | 16 (≈ 41.2 µM) | 
32 | COc1cccc2ccn(S(=O)(=O)c3cccc(C(=O)Nc4ccc(C#N)cc4C(=O)O)c3)c12 [PHA-568422] | 0.125 (≈ 0.263 µM) | 
33 | Cc1ccc(S(=O)(=O)N2CCN(c3cccc(C(F)(F)F)c3)CC2)cc1C(=O)Nc1ccc(Br)cc1C(=O)O | 16 (≈ 25.5 µM) | 
34 | CC(=O)Oc1cccc(C(=O)Nc2ccc(Br)cc2C(=O)O)c1 | 128 (≈ 338 µM) | 
35 | CCN(CC)C(=O)C1CCCN(S(=O)(=O)c2ccc(C(=O)Nc3ccc(C#N)cc3C(=O)O)cc2)C1 (stereo not drawn) [PHA-571202] | 128 (≈ 250 µM) | 
36 | O=C(Nc1ccc(Br)cc1C(=O)O)c1cccc(S(=O)(=O)N2CCN(c3cccc(C(F)(F)F)c3)CC2)c1 | 16 (≈ 26.1 µM) | 
37 | O=C(Nc1ccc(Br)cc1C(=O)O)c1cccc(C(O)c2ccccc2)c1 (stereo not drawn) [PHA-566948] | 1 (≈ 2.35 µM) | 
38 | C=CCON=C(c1ccc(C(=O)Nc2ccc(Cl)cc2C(=O)O)cc1)c1ccco1 [drawing 1095] | 32 (≈ 75.3 µM) | 
39 | CC(=O)c1ccc(NC(=O)Nc2cccc(C(=O)Nc3ccc(Br)cc3C(=O)O)c2)cc1 [PHA-713401] | 32 (≈ 64.5 µM) | 
40 | O=C(Nc1ccc(Br)cc1C(=O)O)c1cccc(F)c1 | 64 (≈ 189 µM) | 
41 | CN(c1ccc(Cl)cc1)S(=O)(=O)c1cccc(C(=O)Nc2ccc([N+](=O)[O-])cc2C(=O)O)c1 [PNU-292379] | 0.5 (≈ 1.02 µM) | 
42 | O=C(Nc1ccc(Cl)cc1C(=O)O)c1cccc(C(=O)C2CCOC2)c1 (stereo not drawn) | 128 (≈ 342 µM) | 

Row | Compound | MIC [µg/mL] | SA 9218 MIC [µg/mL]
43 | N#Cc1ccc(NC(=O)c2ccc(S(=O)(=O)N3CCCC3CO)cc2)c(C(=O)O)c1 (stereo not drawn) [PHA-656868] | > 128 | 
44 | COc1cc(NC(=S)Nc2cccc(C(=O)Nc3ccc(Br)cc3C(=O)O)c2)cc(OC)c1OC [PHA-713406] | 64 (≈ 114 µM) | 
45 | CCN(Cc1ccncc1)S(=O)(=O)c1cc(C(=O)Nc2ccc(Br)cc2C(=O)O)ccc1Br | 128 (≈ 214 µM) | 
46 | N#Cc1ccc(NC(=O)c2cccc(S(=O)(=O)N3CCC3)c2)c(C(=O)O)c1 [PHA-571167] | 32 (≈ 83 µM) | 
47 | O=C(Nc1ccc(-c2ccc(Cl)s2)cc1C(=O)O)c1cccc(S(=O)(=O)N2CCc3cc(Cl)ccc32)c1 [PHA-568206] | 2 (≈ 3.49 µM) | 
48 | O=C(Nc1ccc(Br)cc1C(=O)O)c1ccc(C(=O)c2ccccc2)cc1 [PHA-520447] | 1 (≈ 2.36 µM) | 
49 | CC(C)CN(CC(C)C)S(=O)(=O)c1ccc(C(=O)Nc2ccc(C#N)cc2C(=O)O)cc1 [PHA-656811] | 32 (≈ 69.9 µM) | 
50 | O=C(Nc1ccc(I)cc1C(=O)O)c1ccc(S(=O)(=O)N2CCc3ccc(Cl)cc32)cc1 | 4 (≈ 6.86 µM) | 
51 | COc1ccc(Cl)cc1NC(=O)Nc1cccc(C(=O)Nc2ccc(Br)cc2C(=O)O)c1 [PHA-713398] | 4 (≈ 7.71 µM) | 
52 | O=C(Nc1ccc(Br)cc1C(=O)O)c1ccc(S(=O)(=O)NC2Cc3ccccc3C2)cc1 | 32 (≈ 62.1 µM) | 
53 | O=C(Nc1ccc(Br)cc1C(=O)O)c1cccc(S(=O)(=O)Nc2ccc(N3CCOCC3)cc2)c1 | 32 (≈ 57.1 µM) | 
54 | O=C(Nc1ccc(Cl)cc1C(=O)O)c1cccc(C(=O)C2CCCO2)c1 (stereo not drawn) | 64 (≈ 171 µM) | 
55 | COc1ccc(C(=O)Nc2ccc(Br)cc2C(=O)O)cc1S(=O)(=O)N1CCc2ccccc21 | 4 (≈ 7.53 µM) | 
56 | O=C(Nc1ccc(Br)cc1C(=O)O)c1cccc(Sc2ccccc2)c1 [PHA-526580] | 1 (≈ 2.33 µM) | 
57 | CON=C(c1ccccc1)c1cccc(C(=O)Nc2ccc(C#N)cc2C(=O)O)c1 [PHA-535549] | 0.25 (≈ 0.626 µM) | 
58 | COC(=O)COc1ccc(C(=O)Nc2ccc(Br)cc2C(=O)O)cc1 | 64 (≈ 157 µM) | 
59 | COc1cc(COc2ccc(C(=O)Nc3ccc(Br)cc3C(=O)O)cc2)ccc1[N+](=O)[O-] | 8 (≈ 16 µM) | 
60 | CC(=O)c1cccc(C(=O)Nc2ccc(Br)cc2C(=O)O)c1 [PHA-522145] | 32 (≈ 88.4 µM) | 
61 | O=C(Nc1ccc(Br)cc1C(=O)O)c1ccc(O)cc1 | 32 (≈ 95.2 µM) | 
62 | CSc1ccc(C(=O)Nc2ccc(Br)cc2C(=O)O)cc1 | 2 (≈ 5.46 µM) | 
63 | COC(=O)CCCC(=O)c1ccc(NC(=O)c2cccc(S(=O)(=O)N3CCSC3)c2)c(C(=O)O)c1 | > 128 | 

Row | Compound | MIC [µg/mL] | SA 9218 MIC [µg/mL]
64 | O=C(Nc1ccc(Br)cc1C(=O)O)c1ccc(S(=O)(=O)C2CCc3ccc(Cl)cc32)cc1 (stereo not drawn) | 0.5 (≈ 0.935 µM) | 
65 | CC(C(O)c1ccccc1)N(C)S(=O)(=O)c1cccc(C(=O)Nc2ccc(C#N)cc2C(=O)O)c1 (stereo not drawn) [PHA-571260] |  | 32
66 | CC(C)CN1C(=O)c2ccc(C(=O)Nc3ccc(Br)cc3C(=O)O)cc2C1=O | 2 (≈ 4.49 µM) | 
67 | COc1ccc(CCOc2ccc(C(=O)Nc3ccc(Br)cc3C(=O)O)cc2)cc1 | > 128 | 
68 | CCON=C(c1ccccc1)c1ccc(NC(=O)c2ccc(S(=O)(=O)N3CCc4ccccc43)cc2)c(C(=O)O)c1 | 16 (≈ 28.1 µM) | 
69 | O=C(Nc1ccc(C(=O)Nc2ccc(Br)cc2C(=O)O)cc1)c1ccc(Cl)nc1 [PHA-713390] | > 128 | 
70 | O=C(Nc1cccc(C(=O)Nc2ccc(Br)cc2C(=O)O)c1)c1ccccc1 [PHA-708976] | 32 (≈ 72.8 µM) | 
71 | N#Cc1ccc(NC(=O)c2cccc(S(=O)(=O)N(CCO)Cc3ccccc3)c2)c(C(=O)O)c1 [PHA-656808] | 64 (≈ 133 µM) | 
72 | O=C(Nc1ccc(Br)cc1C(=O)O)c1cccc(SCc2ccccc2)c1 [PNU-293049] | 4 (≈ 9.04 µM) | 
73 | N#Cc1ccc(NC(=O)c2cccc(S(=O)(=O)C3CCCC3)c2)c(C(=O)O)c1 [PHA-630426] | > 128 | 
74 | O=C(Nc1ccc(Cl)cc1C(=O)O)c1ccc(C(=O)c2ccc(Cl)cc2)cc1 | 4 (≈ 9.66 µM) | 
75 | O=C(Nc1ccc(Br)cc1C(=O)O)c1ccc(OCc2cccc(C(F)(F)F)c2)cc1 | 32 (≈ 64.7 µM) | 
76 | O=C(Nc1ccc(Br)cc1C(=O)O)c1ccc(NC(=O)N2CCc3ccccc32)cc1 [PNU-290877, 5-Bromo-2-({4-[(2,3-dihydro-1H-indol-1-ylcarbonyl)amino]benzoyl}amino)benzoic acid] | > 128 | 
77 | O=C(Nc1ccc(/C=N/O)cc1C(=O)O)c1cccc(S(=O)(=O)N2CCOCC2)c1 [PHA-679756] | > 128 | 
78 | COc1c(C(=O)Nc2ccc(Br)cc2C(=O)O)cccc1S(=O)(=O)N(C)c1ccc(Cl)cc1 [PHA-735753] | 16 (≈ 28.9 µM) | 
79 | CCOCC(=O)c1ccc(C(=O)Nc2ccc(Cl)cc2C(=O)O)cc1 | 16 (≈ 44.2 µM) | 
80 | Cc1cccc(C(=O)c2cccc(C(=O)Nc3ccc(Cl)cc3C(=O)O)c2)c1 [PHA-656894] | 16 (≈ 40.6 µM) | 
81 | O=C(Nc1ccc(Br)cc1C(=O)O)c1cccc(C(O)c2ccccc2)c1 (stereo not drawn) [PHA-566947] |  | 0.5
82 | CCCC(Oc1cccc(C(=O)Nc2ccc(Br)cc2C(=O)O)c1)C(=O)OCC (stereo not drawn) | 8 (≈ 17.2 µM) | 
83 | O=C(Nc1ccc(Cl)cc1C(=O)O)c1cc(Br)cc(S(=O)(=O)N2CCc3ccccc32)c1 [PHA-570949] | 1 (≈ 1.87 µM) | 
84 | O=C(CCC1CCCC1)c1cccc(C(=O)Nc2ccc(Cl)cc2C(=O)O)c1 [PHA-656891] | 16 (≈ 40 µM) | 
